Assay [1] deals with T1, human 5HT1A receptor (Homo sapiens, UniProt P08908).
T1 construct: expressed in transfected cells; host or cells: CHO cells, stably transfected
T1 sequence (P08908 1-422): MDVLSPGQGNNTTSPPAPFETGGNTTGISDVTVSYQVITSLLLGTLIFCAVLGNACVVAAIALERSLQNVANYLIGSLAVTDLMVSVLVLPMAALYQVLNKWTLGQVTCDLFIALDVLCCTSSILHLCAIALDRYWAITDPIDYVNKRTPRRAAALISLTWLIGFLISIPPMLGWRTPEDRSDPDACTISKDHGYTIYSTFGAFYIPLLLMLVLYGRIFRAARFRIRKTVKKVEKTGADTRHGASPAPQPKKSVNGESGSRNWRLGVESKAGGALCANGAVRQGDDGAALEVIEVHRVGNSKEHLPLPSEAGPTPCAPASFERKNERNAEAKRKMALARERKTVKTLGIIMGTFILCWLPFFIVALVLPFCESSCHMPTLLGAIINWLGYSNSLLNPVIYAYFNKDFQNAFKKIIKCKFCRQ
As to the kind of experiment: 5-HT1A Receptor Intrinsic Activity Assay (agonist mode; reversal of stimulated cAMP in stably transfected CHO cells). It is filed as cell-based. To be noted: read-out: cAMP Emax. How it is done:
5-HT1A Receptor Intrinsic Activity Assay
The intrinsic activity of compounds of the present invention was established by testing the claimed compounds ability to reverse the stimulation of cyclic adenosinemonophosphate (cAMP) in CHO cells stably transfected with the human 5-HT1A receptor.
Stably transfected CHO cells were grown in DMEM containing 10% heat inactivated FBS and non-essential amino acids. The cells are plated at a density of […] per well in a 24 well plate and incubated for 2 days in a CO2 incubator. On the second day, the media is replaced with 0.5 mL treatment buffer (DMEM+25 mM HEPES, 5 mM theophylline, […] pargyline) and incubated for 10 minutes at 37° C. Wells are treated with forskolin ([…]) followed immediately by the test compound ([…] for initial screen) and incubated for an additional 10 minutes at 37° C. The reaction is terminated by removal of the media and addition of 0.5 mL ice cold assay buffer (supplied in the RIA kit). Plates are stored at -20° C. prior to assessment of cAMP formation by RIA. EC50 values are determined for the active test compounds. Compounds shown to have no agonist activities (Emax=0%) are further analyzed for their ability to reverse agonist induced activity. In separate experiments, 6 concentrations of antagonist are preincubated for 20 minutes prior to the addition of agonist and forskolin. Cells are harvested as described above. The cAMP kit is supplied by Amersham and the RIA is performed as per kit instructions, and calculations of IC50 performed by GraphPad Prism.

In assay [2] the target is T1, human 5HT1A receptor. The assay can be described thus: 5-HT1A Receptor Binding Assay (displacement of [3H] 8-OH-DPAT in stably transfected CHO cells). To be noted: @ 1 _M, single point assay. How it is done: 5-HT1A Receptor Binding Assay
High affinity for the serotonin 5-HT1A receptor was established by testing the claimed compound's ability to displace [3H] 8-OH-DPAT binding in CHO cells stably transfected with the human 5HT1A receptor. Stably transfected CHO cells are grown in DMEM containing 10% heat inactivated FBS and non-essential amino acids. Cells are scraped off the plate, transferred to centrifuge tubes, and washed twice by centrifugation (2000 rpm for 10 min., 4° C.) in buffer (50 mM Tris pH 7.5). The resulting pellets are aliquoted and placed at -80° C. On the day of assay, the cells are thawed on ice and resuspended in buffer. The binding assay is performed in a 96 well microtiter plate in a total volume of […]. Non-specific binding is determined in the presence of […], final ligand concentration is 1.5 nM. Following a 30 minute incubation at room temperature, the reaction is terminated by the addition of ice cold buffer and rapid filtration through a GF/B filter presoaked for 30 minutes in 0.5% PEI. Compounds are initially tested in a single point assay to determine percent inhibition at […], and Ki values are determined for the active compounds.

The mark [3] stands for this setting: forskolin-stimulated cAMP, CHO cells.

Each structure is given as a SMILES string. Counter-ions that a name gives are not always drawn. Like-named read-outs stand apart in the source and are kept apart here.

The results in this text go back to US6239134A, “Diazole derivatives as serotonergic agents” (American Home Products Corp., priority 2000, dated 2001).

What is called Emax is the greatest response seen or fitted, relative to the assay's reference. For `COc1nsnc1N1CCN(C[C@@H](Cc2ccccc2)N(C)C(=O)C2CCCCC2)CC1` [Compound 8, Cyclohexanecarboxylic acid {(1R)-1-benzyl-2-[4-(4-methoxy-[1,2,5]thiadiazol-3-yl)-piperazine-1-yl]ethyl}methyl amide], the Emax on human 5HT1A receptor [1] (setting [3]) amounted to 0%.
In the case of `COc1nsnc1N1CCN(C[C@@H](Cc2cccnc2)NC(=O)C2(C)CCCCC2)CC1` [Compound 11, 1-Methylcyclohexanecarboxylic acid {(1R)-2-[4-(4-methoxy-[1,2,5]thiadiazol-3-yl)-piperazin-1-yl]-1-pyridin-3-ylmethylethyl}amide], the Emax at human 5HT1A receptor [1] (setting [3]) is 0%.
`O=C(N[C@@H](Cc1ccccc1)CN1CCN(c2nsnc2Cl)CC1)C1CCCCC1` [Compound 4, Cyclohexanecarboxylic acid {(1S)-1-benzyl-2-(4-(4-chloro[1,2,5}thiadiazol-3-yl)piperazin-1-yl]ethyl}amide fumarate]: the Emax at human 5HT1A receptor [1] (CHO) is 93%.
Consider `O=C(N[C@@H](Cc1ccccc1)CN1CCN(c2nsnc2Cl)CC1)c1ccccn1` [Compound 6, Pyridine-2-carboxylic acid {(1S)-1-benzyl-2,3-[4(4-chloro[1,2,5]thiadiazol-3-yl)piperazin-1-yl]ethyl}amide], for which the “5-HT1A binding, percent inhibition” value at human 5HT1A receptor [2] is on record as 47%.
For `CN(C(=O)C1CCCCC1)[C@H](Cc1ccccc1)CN1CCN(c2nsnc2Cl)CC1` [Compound 7], on human 5HT1A receptor [1] (setting [3]), the Emax worked out at 0%.
